Experimental data published in patent publication US9480252B2, “Herbicidal compositions” (Syngenta Crop Protection LLC, priority 2007, dated 2016).

Columns and labels:
Brachiaria plantaginea [1] = experiment: Glasshouse trial, control of Brachiaria, pre-emergence test; assay type: in vivo; conditions: TXP (where applied) 200 g ai/ha, 20 DAA
Procedure: (§1) A glasshouse trial was carried out to test the activity of mesotrione or the compound of formula I (each at 3 different rates) in combination with trinexapac-ethyl at 200 gai/ha against Brachiaria plantaginea. Brachiaria seeds were sown in standard potting mix in 50 cm plastic troughs. The adjuvant system was X-77 at 0.1% v/v in deionised water. 500 liters of herbicide/adjuvant system was used per hectare. General weed control was evaluated at 15 days after application (DAA) for the post-emergence test and 20DAA for the pre-emergence test. It is noted that all herbicides were applied at reduced field rates because herbicide effects are magnified in a glasshouse environment. Rates were chosen to give a 50 to 70% level of control with herbicides applied alone as this allows for detection of any synergistic effect when tank mixtures are used.

Brachiaria plantaginea [2] = experiment: Glasshouse trial, control of Brachiaria, post-emergence test; assay type: in vivo; conditions: TXP (where applied) 200 g ai/ha, 15 DAA
Procedure: as §1

Row | Structure (SMILES) | % Control at different herbicide rates (Brachiaria plantaginea [1]; herbicide rate 30 g ai/ha) | % Control at different herbicide rates (Brachiaria plantaginea [1]; herbicide rate 60 g ai/ha) | % Control at different herbicide rates (Brachiaria plantaginea [1]; herbicide rate 125 g ai/ha) | % Control at different herbicide rates (Brachiaria plantaginea [2]; herbicide rate 30 g ai/ha) | % Control at different herbicide rates (Brachiaria plantaginea [2]; herbicide rate 60 g ai/ha) | % Control at different herbicide rates (Brachiaria plantaginea [2]; herbicide rate 125 g ai/ha)
1 | COCCOCc1nc(C(F)(F)F)ccc1C(=O)C1=C(O)C2CCC(C2)C1=O (stereo not drawn) [Formula I] | 30% | 80% | 90% | 60% | 70% | 80%
2 | CS(=O)(=O)c1ccc(C(=O)C2C(=O)CCCC2=O)c([N+](=O)[O-])c1 [Mesotrione, mesotrione] | 30% | 50% | 80% | 30% | 70% | 70%
3 | CCOC(=O)C1CC(=O)C(=C(O)C2CC2)C(=O)C1 (stereo not drawn) [TXP, trinexapac-ethyl] | 0% | 0% | 0% | 0% | 0% | 0%
